Source: PubChem BioAssay (NCI)
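Method: 48-hour compound exposure of cells in 96-well plates, five concentrations, linear interpolation of endpoints. At the GI50, growth is halved. TGI: total growth inhibition.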

Tests used:
Test in all cases: NCI tumour cell line growth inhibition, 48 h
[1] = tested on: EKVX NSCLC
[2] = tested on: ACHN renal
[3] = tested on: OVCAR-4 ovarian
[4] = tested on: OVCAR-8 ovarian
[5] = tested on: NCI/ADR-RES ovarian
[6] = tested on: MDA-MB-435
[7] = tested on: SN12C renal
[8] = tested on: T-47D breast
[9] = tested on: HT29 colon
[10] = tested on: HOP-62 NSCLC
[11] = tested on: MCF7 breast
[12] = tested on: RPMI-8226 leukemia
[13] = tested on: KM12 colon
[14] = tested on: K-562 leukemia
[15] = tested on: RXF 393 renal
[16] = tested on: NCI-H226 lung
[17] = tested on: SF-295 CNS
[18] = tested on: A498 renal
[19] = tested on: SF-268 CNS
[20] = tested on: OVCAR-3 ovarian
[21] = tested on: 786-0 renal
[22] = tested on: MOLT-4 leukemia
[23] = tested on: CCRF-CEM leukemia
[24] = tested on: A549 NSCLC
[25] = tested on: MDA-N
[26] = tested on: SNB-19 CNS
[27] = tested on: COLO 205 colon
[28] = tested on: SNB-75 CNS
[29] = tested on: NCI-H522 lung
[30] = tested on: NCI-H23 lung
[31] = tested on: SK-OV-3 ovarian
[32] = tested on: SF-539 CNS
[33] = tested on: TK-10 renal
[34] = tested on: NCI-H460 lung
[35] = tested on: UACC-257 melanoma
[36] = tested on: UACC-62 melanoma
[37] = tested on: LOX IMVI melanoma
[38] = tested on: IGROV1 ovarian
[39] = tested on: UO-31 renal
[40] = tested on: U251 CNS
[41] = tested on: MDA-MB-231 breast
[42] = tested on: SW-620 colon
[43] = tested on: BT-549 breast
[44] = tested on: DU-145 prostate
[45] = tested on: HCT-15 colon
[46] = tested on: SK-MEL-5 melanoma
[47] = tested on: HL-60(TB) leukemia
[48] = tested on: HOP-92 NSCLC
[49] = tested on: CAKI-1 renal
[50] = tested on: HS 578T breast
[51] = tested on: M14 melanoma
[52] = tested on: HCT-116 colon
[53] = tested on: OVCAR-5 ovarian
[54] = tested on: PC-3 prostate
[55] = tested on: HCC-2998 colon
[56] = tested on: SK-MEL-28 melanoma
[57] = tested on: SK-MEL-2 melanoma
[58] = tested on: SR leukemia
[59] = tested on: MALME-3M melanoma

CC(=O)[O][Bi]([c]1ccccc1)[c]1ccccc1
GI50 [1]: 19.4 µM | TGI [1]: 34.5 µM | GI50 [2]: 11.8 µM | TGI [2]: 24.4 µM | GI50 [3]: 13.7 µM | TGI [3]: 27 µM | GI50 [4]: 16.4 µM | TGI [4]: 31 µM | GI50 [5]: 19.1 µM | TGI [5]: 37.5 µM | GI50 [6]: 7.26 µM | TGI [6]: 22.2 µM | GI50 [7]: 10.9 µM | TGI [7]: 23.6 µM | GI50 [8]: 5.61 µM | TGI [8]: > 100 µM | GI50 [9]: 18.1 µM | TGI [9]: 32.3 µM | GI50 [10]: 17 µM | TGI [10]: 33.8 µM | GI50 [11]: 2.62 µM | TGI [11]: 7.97 µM | GI50 [12]: 2.59 µM | TGI [12]: 5.99 µM | GI50 [13]: 15.8 µM | TGI [13]: 30.1 µM | GI50 [14]: 2.75 µM | TGI [14]: 14.5 µM | GI50 [15]: 2.45 µM | TGI [15]: 7.14 µM | GI50 [16]: 18.6 µM | TGI [16]: 37.5 µM | GI50 [17]: 17.5 µM | TGI [17]: 33.4 µM | GI50 [18]: 18.2 µM | TGI [18]: 32.4 µM | GI50 [19]: 14.4 µM | TGI [19]: 29.9 µM | GI50 [20]: 11.8 µM | TGI [20]: 34.3 µM | GI50 [21]: 2.96 µM | TGI [21]: 9.6 µM | GI50 [22]: 2.9 µM | TGI [22]: > 100 µM | GI50 [23]: 2.27 µM | TGI [23]: 5 µM | GI50 [24]: 25.5 µM | TGI [24]: 86.7 µM | GI50 [25]: 7.57 µM | TGI [25]: 20.3 µM | GI50 [26]: 12.6 µM | TGI [26]: 26.8 µM | GI50 [27]: 2.84 µM | TGI [27]: 7.27 µM | GI50 [28]: 16.4 µM | TGI [28]: 30.2 µM | GI50 [29]: 1.56 µM | TGI [29]: 3.11 µM | GI50 [30]: 11.5 µM | TGI [30]: 27.8 µM | GI50 [31]: 16.6 µM | TGI [31]: 30.5 µM | GI50 [32]: 11.1 µM | TGI [32]: 24.3 µM | GI50 [33]: 1.85 µM | TGI [33]: 6.38 µM | GI50 [34]: 18.1 µM | TGI [34]: 36.4 µM | GI50 [35]: 11.2 µM | TGI [35]: 23.6 µM | GI50 [36]: 11.6 µM | TGI [36]: 24.1 µM | GI50 [37]: 1.98 µM | TGI [37]: 5.24 µM | GI50 [38]: 2.48 µM | TGI [38]: 6.77 µM | GI50 [39]: 2.08 µM | TGI [39]: 7.01 µM | GI50 [40]: 2.6 µM | TGI [40]: 10.9 µM | GI50 [41]: 14.4 µM | TGI [41]: 28.4 µM | GI50 [42]: 2.27 µM | TGI [42]: 5.45 µM | GI50 [43]: 2.94 µM | TGI [43]: 9.32 µM | GI50 [44]: 21.3 µM | TGI [44]: 50.2 µM | GI50 [45]: 1.92 µM | TGI [45]: 4.06 µM | GI50 [46]: 12.8 µM | TGI [46]: 25.9 µM | GI50 [47]: 3.54 µM | TGI [47]: 23.5 µM | GI50 [48]: 1.33 µM | TGI [48]: 4.28 µM | GI50 [49]: 11.1 µM | TGI [49]: 26.2 µM | GI50 [50]: 24.9 µM | TGI [50]: 71.9 µM | GI50 [51]: 11.4 µM | TGI [51]: 24.5 µM | GI50 [52]: 4.29 µM | TGI [52]: 13.7 µM | GI50 [53]: 11.8 µM | TGI [53]: 26.3 µM | GI50 [54]: 16.1 µM | TGI [54]: 30.7 µM

COc1cccc(C2c3cc4c(cc3OC(N3CCCCC3)C2C)OCO4)c1OC (stereo not drawn)
TGI [1]: 54.5 µM | TGI [2]: 35.1 µM | TGI [4]: > 100 µM | TGI [6]: 33.8 µM | TGI [7]: 96.8 µM | TGI [8]: 54.2 µM | TGI [9]: 19.8 µM | TGI [10]: 50.1 µM | TGI [11]: 52.1 µM | TGI [55]: 33 µM | TGI [12]: 21.6 µM | TGI [13]: 23.8 µM | TGI [14]: 20.7 µM | TGI [15]: 28.2 µM | TGI [16]: 34.8 µM | TGI [17]: 22.5 µM | TGI [18]: 28.4 µM | TGI [56]: 46.7 µM | TGI [19]: 48.4 µM | TGI [20]: 20.7 µM | TGI [21]: > 100 µM | TGI [22]: 30.4 µM | TGI [23]: 15.2 µM | TGI [24]: 22.3 µM | TGI [25]: 47 µM | TGI [26]: > 100 µM | TGI [27]: 29 µM | TGI [28]: 66.7 µM | TGI [29]: 29 µM | TGI [30]: 71.3 µM | TGI [31]: > 100 µM | TGI [32]: 33.9 µM | TGI [33]: 84.1 µM | TGI [34]: 27.9 µM | TGI [35]: 36.2 µM | TGI [36]: 33.6 µM | TGI [37]: 20.1 µM | TGI [38]: 61.7 µM | TGI [39]: 48.6 µM | TGI [40]: 51.5 µM | TGI [57]: 26 µM | TGI [41]: 41 µM | TGI [42]: 68.9 µM | TGI [43]: 57.4 µM | TGI [44]: 25.5 µM | TGI [45]: 26.3 µM | TGI [46]: 21.5 µM | TGI [48]: 37.9 µM | TGI [49]: 11 µM | TGI [50]: 29.5 µM | TGI [51]: 47.1 µM | TGI [52]: 12.1 µM | TGI [53]: 79.4 µM | TGI [58]: 4.02 µM | TGI [59]: 39.4 µM | TGI [54]: 42.8 µM

Clc1ccc(-c2nnc(-c3c(Cl)c(Cl)c(Cl)c(Cl)c3-c3nc4ccccc4[nH]3)o2)cc1
TGI [1]: > 100 µM | TGI [2]: > 100 µM | TGI [3]: > 100 µM | TGI [4]: > 100 µM | TGI [5]: > 100 µM | TGI [6]: > 100 µM | TGI [7]: > 100 µM | TGI [8]: > 100 µM | TGI [9]: > 100 µM | TGI [10]: > 100 µM | TGI [11]: > 100 µM | TGI [55]: > 100 µM | TGI [12]: > 100 µM | TGI [13]: > 100 µM | TGI [14]: > 100 µM | TGI [15]: > 100 µM | TGI [16]: > 100 µM | TGI [17]: > 100 µM | TGI [18]: > 100 µM | TGI [56]: > 100 µM | TGI [19]: > 100 µM | TGI [20]: > 100 µM | TGI [21]: > 100 µM | TGI [22]: > 100 µM | TGI [23]: > 100 µM | TGI [25]: > 100 µM | TGI [27]: > 100 µM | TGI [28]: > 100 µM | TGI [29]: > 100 µM | TGI [30]: > 100 µM | TGI [31]: > 100 µM | TGI [32]: > 100 µM | TGI [34]: > 100 µM | TGI [35]: > 100 µM | TGI [36]: > 100 µM | TGI [37]: > 100 µM | TGI [38]: > 100 µM | TGI [39]: > 100 µM | TGI [57]: > 100 µM | TGI [42]: > 100 µM | TGI [43]: > 100 µM | TGI [44]: > 100 µM | TGI [45]: > 100 µM | TGI [46]: > 100 µM | TGI [47]: > 100 µM | TGI [48]: > 100 µM | TGI [49]: > 100 µM | TGI [50]: > 100 µM | TGI [51]: > 100 µM | TGI [52]: > 100 µM | TGI [53]: > 100 µM | TGI [58]: > 100 µM | TGI [59]: > 100 µM | TGI [54]: > 100 µM
